Assay: gradient 5% acetonitrile 3 min, to 50% in 2 min, to 85% in 15 min, held 3 min, 100 µL/min
Conditions: column: Zorbax Extend-C18 2.1 x 50 mm; eluents: water / acetonitrile, 0.1% formic acid
Method in brief: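 Values are retention times taken from adduct peaks that software picked and an analyst inspected. The pure standards were run as mixtures of ~100 molecules on HPLC linked to a quadrupole time-of-flight mass spectrometer, in positive and negative ionization mode. A Zorbax Extend-C18 column (2.1 × 50 mm, 1.8 μm) was used at 100 μL/min with water and acetonitrile, each including 0.1% formic acid.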

Compound | RP-LC retention time [s]
Cn1c(=O)c2nc(SCCC(=O)Nc3ccc(Cl)cc3)n(C)c2n(C)c1=O | 732
Cc1ccccc1OCC(=O)Nc1nc(-c2ccccc2)cs1 | 1110
Cc1ccc(CNC(=O)C2(C)CN(S(C)(=O)=O)CC(=O)N2CCC(C)C)cc1 (stereo unspecified) | 865
CCn1c(=O)c2cc(C(=O)NCCc3ccc(OC)c(OC)c3)nn2c2ccccc21 | 910
O=S(=O)(Nc1nc2ccc(S(=O)(=O)N3CCCC3)cc2s1)c1ccc(F)cc1 | 773
Cc1cc(=O)n(CC(=O)Nc2ccc(Br)cc2F)c(N(C)Cc2ccccc2)n1 | 862
CCC(=O)N1CCc2cc(N3CC(C(=O)Nc4cccc(SC)c4)CC3=O)ccc21 (stereo unspecified) | 789
CCc1noc2nc(C)n(CC(=O)NCc3ccc(OC(C)C)cc3)c(=O)c12 | 661
O=C(Nc1cnc(-c2cccnc2)nc1)C1CCCC1 | 654
O=C(NCCc1c[nH]c2ccccc12)C1COc2ccccc2O1 (stereo unspecified) | 866
CC(C)C(=O)Nc1ccc(-c2nc(-c3ccc(Cl)cc3)no2)cc1 | 1200
COc1cccc(-n2nnc(-c3nsc(Nc4ccccc4)n3)c2C)c1 | 990
Cc1ccc(-c2ncc(NC(=O)C3CCC3)cn2)cc1 | 941
Cc1nnc(-c2ccc3ccn(CC(=O)NCCc4ccc(S(N)(=O)=O)cc4)c3c2)o1 | 648
Cc1ccccc1CC(=O)Nc1nnc(SCc2nnc(-c3ccccc3)o2)s1 | 908
COc1cc(NC(=O)CN2C(=O)CCn3nc(-c4cn(C)c5ccccc45)cc32)cc(OC)c1 | 822
CCOC(=O)c1ccccc1NC(=O)Cn1nc2cc(-c3ccccn3)nc(C)n2c1=O | 875

Compound | RP-LC retention time [s]
CCOCCCNCc1ccc(-c2ccc(Cl)cc2)o1 | 687
CCc1ccccc1NC(=O)N1CCCC(C)(C(=O)NCc2ccccc2C)C1 (stereo unspecified) | 1020
CN(C)S(=O)(=O)N1CCC(F)(c2nc(-c3ccccc3)no2)CC1 | 1030
Cn1nc(C(=O)N2CCC3(CC2)N=C(c2ccc(Br)cc2)NO3)c2ccccc21 | 916
COc1ccc(NC(=O)CSc2nccnc2-n2nc(C)cc2C)cc1OC | 702
CCn1cc(-c2nc(-c3ccc(F)cc3)no2)c(=O)c2cc(F)c(N3CCOCC3)cc21 | 951
COc1ccc(CCC(=O)Nc2nc(-c3cccc(Br)c3)cs2)cc1 | 1150
CS(=O)(=O)Nc1ccc(-c2noc(CNC(=O)Cc3ccccc3)n2)cc1 | 722
Cc1cc(C)cc(C(=O)NCCc2nc3cccnc3n2C(C)C)c1 | 744
CCCN(CC1CC1)C(=O)[C@@H]1[C@H](c2cc(OC)c(OC)c(OC)c2)c2cc3c(cc2[C@H](O)[C@H]1CO)OCO3 | 740
O=C(Cn1cccc(-c2nc(-c3ccc(Cl)cc3)no2)c1=O)N1CCCc2ccccc21 | 1040
CSc1cccc(NC(=O)N2CCc3nc(-c4ccccc4)ncc3C2)c1 | 955
O=C(Nc1ccc(F)cc1)N1CCc2nc(-c3ccc(Cl)cc3)ncc2C1 | 1010
CNc1nnc(-c2nnc(C)o2)c2ccccc12 | 567
CC(C)C(=O)Nc1nnc(SCc2nnc(-c3ccc4c(c3)OCO4)o2)s1 | 773
CCOC(=O)c1cccc(NC(=O)CN2C(=O)C(C)(C)c3ccccc32)c1 | 900
O=C(NCc1ccccc1)c1cc2sccc2n1Cc1ccc(F)cc1 | 1080

Results, then the compound that gave them:

RP-LC retention time [s] | Compound
1020 | CCOC(=O)c1cc(S(=O)(=O)N2CCCC2C(=O)N2CCC(Cc3ccccc3)CC2)cn1C (stereo unspecified)
670 | CCOC(=O)c1[nH]c(C)c(CCC(=O)N2CCC(C(=O)NCC3CCCO3)CC2)c1C (stereo unspecified)
1040 | Cc1[nH]c(C(=O)N2CCN(c3ccccc3F)CC2)c(C)c1S(=O)(=O)N1CCC(C)CC1
1010 | Cc1ccc(C)c(N2CCN(C(=O)C3CCCN(C(=O)c4[nH]c(C)cc4C)C3)CC2)c1 (stereo unspecified)
1130 | CCOc1ccccc1N1CCN(S(=O)(=O)c2nn(CC)cc2C(=O)NCCC(C)C)CC1
933 | O=C1CCN([C@@H]2O[C@H](CO)[C@@H](O)[C@H]2O)C(=O)N1
808 | O=C(NCCc1cccs1)C1CCN(C(=O)c2ncn3c2COC(c2ccc(Cl)cc2)C3)CC1 (stereo unspecified)
648 | CC1=C(c2ccc(C)c(C)c2)S(=O)(=O)N=C1N1CCC(C(=O)NCCN2CCOCC2)CC1
644 | O=C1CCCc2nc(N3CCN(CCO)CC3)nc(Nc3ccccc3)c21
769 | CCn1cnc(S(=O)(=O)N2CCC(C(=O)NC3CCCCCCC3)CC2)c1
686 | CC(=O)N1CCN(CCOc2ccc(C3CCN(C4=Nn5c(nnc5C(F)(F)F)CC4)CC3)cc2)CC1
730 | O=C(CSc1ccc(N2CCOCC2)nn1)Nc1ccccc1Cl
565 | CCN(CC)CCNS(=O)(=O)c1cc(-c2[nH]ncc2C(=O)N2CCCC2)oc1C
690 | Cc1cccc(NC(=O)N2CCCC2C(=O)NC(C)C)c1 (stereo unspecified)
876 | CCOC(=O)c1cc2n(n1)CC(C)(C(=O)NC1CCCC1)N(c1ccccc1F)C2=O (stereo unspecified)
708 | CCOC(=O)C(C)Sc1nnc(NC(=O)C2CC2)s1 (stereo unspecified)

RP-LC retention time [s] | Compound
1140 | O=C(NCc1cccc(C(F)(F)F)c1)c1ccnc(N2CCCCC2)n1
779 | COCc1cc(=O)n(CC(=O)Nc2cccc(OC)c2)c(N2CCOCC2)n1
779 | CNC(=O)N1CCCC(c2cccc(C(=O)NCc3ccc(SC)cc3)c2)C1 (stereo unspecified)
742 | COc1cccc(CNC(=O)Cn2c(=O)c3cc(C4CC4)nn3c3ncccc32)c1
874 | O=C(Nc1cc(F)ccc1F)C1CCN(c2ccc(=O)n(-c3ccc(F)cc3)n2)CC1
581 | O=C(Nc1nc2ccccc2n1CCN1CCOCC1)c1cccc([N+](=O)[O-])c1
568 | Cc1ccccc1-c1nc2cnccn2c1NCCC(=O)NC1CC1
770 | CC1CCN(C(=O)Cc2nnc(-c3ccccc3)o2)CC1
889 | COc1ccc(C2(C(=O)N3CCN(S(=O)(=O)c4c(C)nn(C(C)C)c4C)CC3)CC2)cc1
603 | Cc1ccc2oc(C(=O)N3CCC(CCN4CCCC4)CC3)cc(=O)c2c1
582 | Cc1ccccc1CNC(=O)c1ccc2c(c1)ncn2CCN1CCCC1
570 | COCC(=O)N1CCN(c2nc(CN3CCC(C)CC3)cs2)CC1
761 | CN1C(=O)c2cc(C(=O)NCCc3ccccc3)nn2CC1(C)C(=O)NC1CCCC1 (stereo unspecified)
675 | CCOC(=O)CCNC(=O)N1CCN(Cc2nc3cc(-c4ccccc4)ccc3o2)CC1
698 | Cn1c(=O)c(-c2ccc(C(=O)N3CCOCC3)cc2)nc2ccccc21
695 | CCCNC(=O)C1CCCN(c2nc3ncn(CC(=O)NCc4ccc(F)cc4)c(=O)c3s2)C1 (stereo unspecified)
